pIC50: −log10 of the molar value.
Legend:
[1] = target: T1, PI3Kdelta (Homo sapiens, UniProt O00329); test: HTRF PI3K biochemical assay, delta isoform; conditions: 0.3 nM enzyme, 100 uM ATP, 5 uM PIP2, form screened (Neutral or TFA salt) given per compound
T1 construct: purchased Upstate; Millipore 14-604
Excerpt: (§1) HTRF PI3K Biochemical Assay to Measure Intrinsic Potency of Compound Inhibitors
(§2) The PI3-Kinase biochemical assays were developed to measure the intrinsic potency and compound dependent inhibition of the alpha, beta, delta, and gamma PI3K isoform enzymes. This assay was developed and further optimized from a kit produced by Upstate (Millipore catalog #33-047) and has been configured for HTS and SAR screening. Briefly, this procedure exploits the exquisite specificity and high affinity binding of […] phosphatidyl(3,4,5)triphosphate (PIP3) to the GRP1 pleckstrin homology (PH) domain to generate the signal. In the absence of PIP3, an HTRF (Homogeneous Time-Resolved Fluorescence energy transfer) complex is formed consisting of europium (Eu)-labeled anti-GST, GSTtagged GRP1-PH domain, biotin-PIP3 and streptavidin conjugated APC. The native PIP3 produced by PI3-Kinase activity disrupts in a competitive manner the biotin-PIP3 from the PH domain, resulting in the loss of energy transfer (HTRF complex) and a decrease in the signal. The format of this assay is the same for all 4 isoforms of PI3K; the differences lie in the concentration of enzyme used to achieve robust assay window. The alpha, beta, and delta assays are run at 0.5, 1, and 0.3 nM enzymes and the gamma assay is run at 5 nM enzyme. The ATP concentration is 100 uM in the alpha, beta, and delta assays and 50 uM ATP in the gamma assay. All reactions are run at 5 uM PIP2.
(§3) Compounds are serially diluted (3-fold in 100% DMSO) across a 384-well polypropylene source plated from column 3 to column 12 and column 13 to column 22, to yield 10 concentration dose response for each test compound. Columns 1, 2, 23 and 24 contain either only DMSO or pharmacological known control inhibitor. Once titrations are made, 2.5 nL of the compounds on 384 well plates are reformatted and transferred by acoustic dispense in quadruplicates to a 1536 assay plate (Greiner) to assay across all four PI3K isoform enzymes.
(§4) The PI3-Kinase biochemical assay was optimized using the HTRF kit provided by Upstate (Millipore). The assay kit contains six reagents: 1) 4× Reaction Buffer; 2) native PIP2 (substrate); 3) Stop (EDTA); 4) Detection Mix A (Streptavidin-APC); 5) Detection Mix B (Eu-labeled Anti-GST plus GST-tagged PH-domain); 6) Detection Mix C. In addition, the following items were obtained or purchased; PI3Kinase (alpha 14-602, beta 14-603, gamma 14-558 and delta 14-604 from Upstate; Millipore), dithiothreitol (Sigma, D-5545), Adenosine-5′ triphosphate (InVitrogen, Cat#AS001A), native PIP3 (PI(3,4,5)P3, diC8, H^+, CELLSIGNALS, INC. Cat #907) DMSO (Sigma, 472301).
(§5) PI3Kinase Reaction Buffer is prepared by dilution the stock 1:4 with de-ionized water. DTT, PIP2 and Biotin-PIP3 were added to 1536 assay plate at a final concentration of 5 mM, […] 25 nM on the day of use. Enzyme addition and compound pre-incubation are initiated by the addition of 1.25 ul of PI3K (at twice its final concentration) in the 1× reaction buffer to all wells using a BioRaptor. Plates are incubated at room temperature for 15 minutes. Reactions are initiated by addition of 1.25 ul of 2× substrate solution (PIP2 and ATP in 1× reaction buffer) using BioRaptor. Plates are incubated in humidified chamber at room temperature for one hour. Reactions are quenched by addition of 0.625 uL of stop solution to all wells using the BioRaptor. The quenched reactions are then processed to detect product formation by adding 0.625 uL of Detection Solution to all wells using the BioRaptor (Detection mix C, Detection Mix A, and Detection Mix B combined together in an 18:1:1 ratio prepared 2 hours prior to use). Following a one hour incubation in the dark, the HTRF signal is measured on the Envision plate reader set for 330 nm excitation and dual emission detection at […]. […]

[2] = target: T2, PI3Kalpha (Homo sapiens, UniProt P42336); test: HTRF PI3K biochemical assay, alpha isoform (selectivity versus delta); conditions: relative ratio PI3K-alpha IC50 value / PI3K-delta IC50 value
T2 construct: purchased Upstate; Millipore 14-602
Excerpt: as §1, §2, §3, §4, §5

T1 sequence (O00329 whole entry, canonical isoform): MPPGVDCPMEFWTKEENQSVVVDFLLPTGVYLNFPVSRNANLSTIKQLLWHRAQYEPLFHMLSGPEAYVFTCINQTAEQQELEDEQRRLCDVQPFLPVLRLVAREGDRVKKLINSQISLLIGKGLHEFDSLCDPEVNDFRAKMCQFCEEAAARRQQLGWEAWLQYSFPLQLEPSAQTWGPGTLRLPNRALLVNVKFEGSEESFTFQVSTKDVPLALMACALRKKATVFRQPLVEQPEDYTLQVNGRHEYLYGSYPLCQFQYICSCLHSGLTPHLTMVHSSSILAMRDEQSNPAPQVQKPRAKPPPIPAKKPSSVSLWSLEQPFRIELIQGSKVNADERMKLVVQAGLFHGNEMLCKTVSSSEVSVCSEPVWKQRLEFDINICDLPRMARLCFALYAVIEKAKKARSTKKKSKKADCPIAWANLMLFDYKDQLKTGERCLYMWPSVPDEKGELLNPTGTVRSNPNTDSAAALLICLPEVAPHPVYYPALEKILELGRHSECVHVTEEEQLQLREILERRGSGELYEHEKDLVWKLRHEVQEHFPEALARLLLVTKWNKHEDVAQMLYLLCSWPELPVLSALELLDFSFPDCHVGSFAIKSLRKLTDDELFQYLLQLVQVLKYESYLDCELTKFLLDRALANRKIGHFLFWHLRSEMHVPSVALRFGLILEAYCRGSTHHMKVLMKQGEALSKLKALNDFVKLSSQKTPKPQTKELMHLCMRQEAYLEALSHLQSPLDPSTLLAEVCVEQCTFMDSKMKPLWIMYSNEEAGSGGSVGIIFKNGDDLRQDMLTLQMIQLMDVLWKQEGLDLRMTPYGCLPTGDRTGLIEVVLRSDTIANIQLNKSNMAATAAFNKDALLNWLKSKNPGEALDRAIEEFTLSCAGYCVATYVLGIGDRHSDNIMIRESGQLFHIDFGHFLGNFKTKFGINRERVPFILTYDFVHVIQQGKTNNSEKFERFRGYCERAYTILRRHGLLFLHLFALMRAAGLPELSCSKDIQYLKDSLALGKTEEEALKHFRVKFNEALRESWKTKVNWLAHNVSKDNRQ
T1 sequence (P27986 whole entry partner, canonical isoform): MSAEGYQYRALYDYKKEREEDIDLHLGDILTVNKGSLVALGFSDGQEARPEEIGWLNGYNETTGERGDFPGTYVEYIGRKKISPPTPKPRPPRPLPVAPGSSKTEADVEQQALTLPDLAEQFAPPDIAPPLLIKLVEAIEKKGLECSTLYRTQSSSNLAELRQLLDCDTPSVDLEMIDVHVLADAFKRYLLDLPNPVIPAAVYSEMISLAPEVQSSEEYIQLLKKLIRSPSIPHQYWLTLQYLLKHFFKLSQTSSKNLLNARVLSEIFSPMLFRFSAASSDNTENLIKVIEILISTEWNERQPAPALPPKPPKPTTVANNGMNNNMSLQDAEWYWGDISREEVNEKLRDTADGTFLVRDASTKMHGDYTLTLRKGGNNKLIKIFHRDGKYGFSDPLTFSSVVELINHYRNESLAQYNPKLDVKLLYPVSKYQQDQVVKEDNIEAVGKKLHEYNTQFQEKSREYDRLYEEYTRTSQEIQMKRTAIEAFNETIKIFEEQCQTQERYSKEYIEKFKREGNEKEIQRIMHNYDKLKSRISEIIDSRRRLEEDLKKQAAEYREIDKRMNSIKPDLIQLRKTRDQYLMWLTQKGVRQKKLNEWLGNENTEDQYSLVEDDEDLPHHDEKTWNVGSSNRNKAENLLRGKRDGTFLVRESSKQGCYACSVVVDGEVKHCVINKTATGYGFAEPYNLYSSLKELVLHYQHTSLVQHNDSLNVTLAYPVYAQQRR
T2 sequence (P42336 whole entry, canonical isoform): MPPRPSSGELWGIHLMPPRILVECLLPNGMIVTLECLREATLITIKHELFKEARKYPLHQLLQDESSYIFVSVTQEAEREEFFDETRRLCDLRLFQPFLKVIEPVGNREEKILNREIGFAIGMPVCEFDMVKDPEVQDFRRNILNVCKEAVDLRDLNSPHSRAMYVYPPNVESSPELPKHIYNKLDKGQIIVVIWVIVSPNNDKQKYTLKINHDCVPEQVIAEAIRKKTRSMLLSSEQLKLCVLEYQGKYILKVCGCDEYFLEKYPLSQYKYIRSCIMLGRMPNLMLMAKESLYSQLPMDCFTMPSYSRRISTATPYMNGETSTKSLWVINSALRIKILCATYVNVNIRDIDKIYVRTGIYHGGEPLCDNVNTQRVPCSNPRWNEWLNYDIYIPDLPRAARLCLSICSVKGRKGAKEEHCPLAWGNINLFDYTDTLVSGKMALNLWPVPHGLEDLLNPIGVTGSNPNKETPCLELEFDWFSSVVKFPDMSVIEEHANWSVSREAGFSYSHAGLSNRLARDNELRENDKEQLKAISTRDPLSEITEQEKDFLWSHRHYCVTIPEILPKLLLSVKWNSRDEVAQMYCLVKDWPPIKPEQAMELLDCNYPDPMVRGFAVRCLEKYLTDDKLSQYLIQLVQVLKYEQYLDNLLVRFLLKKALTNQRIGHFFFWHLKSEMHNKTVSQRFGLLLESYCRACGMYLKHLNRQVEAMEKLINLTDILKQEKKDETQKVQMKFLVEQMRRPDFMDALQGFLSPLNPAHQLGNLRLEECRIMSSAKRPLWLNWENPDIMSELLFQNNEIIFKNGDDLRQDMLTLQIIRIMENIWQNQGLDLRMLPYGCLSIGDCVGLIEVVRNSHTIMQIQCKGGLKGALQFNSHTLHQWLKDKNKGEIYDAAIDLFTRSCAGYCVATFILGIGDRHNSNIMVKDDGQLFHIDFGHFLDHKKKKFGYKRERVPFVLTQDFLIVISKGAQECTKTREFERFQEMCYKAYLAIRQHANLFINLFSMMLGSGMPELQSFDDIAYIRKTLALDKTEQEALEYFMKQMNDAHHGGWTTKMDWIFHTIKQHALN
T2 sequence (P27986 whole entry partner, canonical isoform): as the sequence (P27986 whole entry partner, canonical isoform) above

Structure (SMILES) | pIC50 [1] | Selectivity versus PI3Kalpha [2]
CCn1c(-c2cnc(C)nc2)nc2c(NC3CCc4c(c(C(C)C)nn4C(=O)OC(C)C)C3)ncnc21 (racemic) [Compound 2-18, (S and R)-1-methylethyl 5-{[9-ethyl-8-(2-methylpyrimidin-5-yl)-9H-purin-6-yl]amino}-3-(1-methylethyl)-4,5,6,7-tetrahydro-1H-indazole-1-carboxylate] | > 9.00 | >10
CCn1c(-c2cnc(C)nc2)nc2c(NC3CCc4c(c(C(C)C)nn4C(=O)OC(C)(C)C(F)(F)F)C3)ncnc21 (racemic) [Compound 2-20, (S and R)-2,2,2-trifluoro-1,1-dimethylethyl 5-{[9-ethyl-8-(2-methylpyrimidin-5-yl)-9H-purin-6-yl]amino}-3-(1-methylethyl)-4,5,6,7-tetrahydro-1H-indazole-1-carboxylate] | 8.59 | >10
CCn1c(-c2cnc(C)nc2)nc2c(NC3CCc4c(c(C(C)C)nn4C(=O)NC(C)(C)C)C3)ncnc21 (racemic) [Compound 2-21, (S and R)-N-tert-butyl-5-{[9-ethyl-8-(2-methylpyrimidin-5-yl)-9H-purin-6-yl]amino}-3-(1-methylethyl)-4,5,6,7-tetrahydro-1H-indazole-1-carboxamide] | 7.80 | >10
CCn1c(-c2cnc(C)nc2)nc2c(NC3CCc4c(c(C(C)C)nn4-c4ccccn4)C3)ncnc21 (racemic) [Compound 2-22, (S and R)-9-ethyl-N-[3-(1-methylethyl)-1-pyridin-2-yl-4,5,6,7-tetrahydro-1H-indazol-5-yl]-8-(2-methylpyrimidin-5-yl)-9H-purin-6-amine] | 7.96 | >10
CCn1c(-c2cnc(C)nc2)nc2c(NC3CCc4c(c(C(C)C)nn4S(C)(=O)=O)C3)ncnc21 (racemic) [Compound 2-23, (S and R)-9-ethyl-N-[3-(1-methylethyl)-1-(methylsulfonyl)-4,5,6,7-tetrahydro-1H-indazol-5-yl]-8-(2-methylpyrimidin-5-yl)-9H-purin-6-amine] | > 9.00 | >10
CCn1c(-c2cnc(C)nc2)nc2c(NC3Cc4cnn(Cc5ccccc5)c4C3)ncnc21 (racemic) [Compound 2-26, (S and R)-N-(1-benzyl-1,4,5,6-tetrahydrocyclopenta[c]pyrazol-5-yl)-9-ethyl-8-(2-methylpyrimidin-5-yl)-9H-purin-6-amine] | 8.21 | >10
CCc1nn(CC)c2c1CC(Oc1ncnc3c1nc(-c1cnc(C)nc1)n3CC)CC2 (racemic) [Compound 2-27, (S and R)-6-[(1,3-diethyl-4,5,6,7-tetrahydro-1H-indazol-5-yl)oxy]-9-ethyl-8-(2-methylpyrimidin-5-yl)-9H-purine] | 7.60 | >10
CCc1cnc2n1CC(Oc1ncnc3c1nc(-c1cnc(C)nc1)n3CC)C2 (racemic) [Compound 4-5, (S and R)-9-ethyl-6-[(3-ethyl-6,7-dihydro-5H-pyrrolo[1,2-a]imidazol-6-yl)oxy]-8-(2-methylpyrimidin-5-yl)-9H-purine] | 6.26 | >10
CCn1c(-c2cnc(C)nc2)nc2c(NC3CCc4nc(Cl)n(C5CC5)c4C3)ncnc21 (racemic) [Compound 5-12, (S and R)-N-(2-chloro-1-cyclopropyl-4,5,6,7-tetrahydro-1H-benzimidazol-6-yl)-9-ethyl-8-(2-methylpyrimidin-5-yl)-9H-purin-6-amine] | > 9.00 | >10
CCn1c(-c2cnc(C)nc2)nc2c(NC3CCc4nnc(C5CC5)n4C3)ncnc21 (single isomer, unassigned) [Compound 1-1, (S or R)-N-(3-cyclopropyl-5,6,7,8-tetrahydro[1,2,4]triazolo[4,3-a]pyridin-6-yl)-9-ethyl-8-(2-methylpyrimidin-5-yl)-9H-purin-6-amine] | 8.38 | >10
CCn1c(-c2cnc(C)nc2)nc2c(NC3CCc4nnc(C5CC5)n4C3)ncnc21 (single isomer, unassigned) [Compound 1-2, (S or R)-N-(3-cyclopropyl-5,6,7,8-tetrahydro[1,2,4]triazolo[4,3-a]pyridin-6-yl)-9-ethyl-8-(2-methylpyrimidin-5-yl)-9H-purin-6-amine] | 7.19 | >10
CCn1c(-c2cnc(C)nc2)nc2c(NC3CCc4nnc(-c5ccccc5)n4C3)ncnc21 (single isomer, unassigned) [Compound 1-3, (S or R)-9-ethyl-8-(2-methylpyrimidin-5-yl)-N-[3-phenyl-5,6,7,8-tetrahydro[1,2,4]triazolo[4,3-a]pyridin-6-yl]-9H-purin-6-amine] | 8.23 | >10
CCn1c(-c2cnc(C)nc2)nc2c(NC3CCc4nnc(C(C)C)n4C3)ncnc21 (single isomer, unassigned) [Compound 1-4, (S or R)-9-ethyl-N-[3-(1-methylethyl)-5,6,7.8-tetrahydro[1,2,4]triazolo[4,3-a]pyridin-6-yl]-8-(2-methylpyrimidin-5-yl)-9H-purin-6-amine] | 7.34 | >10
CCn1c(-c2cnc(C)nc2)nc2c(NC3CCc4nnc(C(C)C)n4C3)ncnc21 (single isomer, unassigned) [Compound 1-5, (S or R)-9-ethyl-N-[3-(1-methylethyl)-5,6,7,8-tetrahydro[1,2,4]triazolo[4,3-a]pyridin-6-yl]-8-(2-methylpyrimidin-5-yl)-9H-purin-6-amine] | 8.96 | >10
CCc1nnc2n1CC(Nc1ncnc3c1nc(-c1cnc(C)nc1)n3CC)CC2 (single isomer, unassigned) [Compound 1-6, (S or R)-9-ethyl-N-[3-ethyl-5,6,7,8-tetrahydro[1,2,4]triazolo[4,3-a]pyridin-6-yl]-8-(2-methylpyrimidin-5-yl)-9H-purin-6-amine] | 8.70 | >10
CCc1nnc2n1CC(Nc1ncnc3c1nc(-c1cnc(C)nc1)n3CC)CC2 (single isomer, unassigned) [Compound 1-7, (S or R)-9-ethyl-N-[3-ethyl-5,6,7,8-tctrahydro[1,2,4]triazolo[4,3-a]pyridin-6-yl]-8-(2-methylpyrimidin-5-yl)-9H-purin-6-amine] | 7.89 | >10
CCn1c(C(F)F)nc2c(NC3CCc4nnc(C(C)C)n4C3)ncnc21 (single isomer, unassigned) [Compound 1-8, (S or R)-8-(difluoromethyl)-9-ethyl-N-[3-(1-methylethyl)-5,6,7,8-tetrahydro[1,2,4]triazolo[4,3-a]pyridin-6-yl]-9H-purin-6-amine] | 6.34 | >10
CCn1c(C(F)F)nc2c(NC3CCc4nnc(C(C)C)n4C3)ncnc21 (single isomer, unassigned) [Compound 1-9, (S or R)-8-(difluoromethyl)-9-ethyl-N-[3-(1-methylethyl)-5,6,7,8-tetrahydro[1,2,4]triazolo[4,3-a]pyridin-6-yl]-9H-purin-6-amine] | 7.80 | >10

Reference: patent US10100064B2, “Purine inhibitors of human phosphatidylinositol 3-kinase delta” (Merck Sharp & Dohme Corp., priority 2014, dated 2018)
